In patent US20130296425A1, “PROPHYLACTIC OR THERAPEUTIC AGENT FOR A PERIPHERAL NERVE DISORDER INDUCED BY ANTI-CANCER AGENTS” (NAGOYA INDUSTRIAL SCIENCE RESEARCH INSTITUTE, priority 2011, published 2013):

Legend:
[1] = tested on: paclitaxel-induced peripheral nerve disorder rats; experiment: Single intraperitoneal administration, hyperalgesia induced by paclitaxel (von Frey test); format: in vivo; conditions: Rattus norvegicus, ip, single i.p. dose 0.3 mg/kg, higher of the values after 1 hour and 5 hours, read-out: Recovery rate of 50% reaction threshold value (%)
Description: Male SD rats in six weeks age (one group comprised six rats) were used as experimental animals and the paclitaxel-induced peripheral nerve disorder rats were prepared in the same manner as in the above 1.[1](2). The test drug was administered intraperitoneally in a single dose so as to make it 0.3 mg/kg in any of the cases during the period of 18 to 25 days or 20 to 27 days after initiation of administration of paclitaxel.
A von Frey test was conducted in the same manner as in the above 1.[1](4) using the rats mentioned in the above (1) and each 50% reaction threshold value was measured. With regard to the higher 50% reaction threshold value between the 50% reaction threshold values after 1 hour and 5 hours from administration of a test drug, a recovery rate (%) of the 50% reaction threshold value was calculated.
Recovery rate (%) of 50% reaction threshold value={[(50% reaction threshold value after 1 hour or 5 hours from administration of test drug)−(50% reaction threshold value before administration of test drug)]÷[(Normal threshold value)−(50% reaction threshold value before administration of test drug)]}×100

[2] = tested on: paclitaxel-induced peripheral nerve disorder rats; experiment: Repeated intraperitoneal administration, hyperalgesia by paclitaxel (von Frey test); format: in vivo, rat; conditions: prophylactic i.p. 0.50 mg/kg/day, paclitaxel; male SD rats
Description: With regard to male SD rats of six weeks age used as the experimental animals, their 50% reaction threshold values to the mechanical stimulus (the measuring method will be mentioned later) and body weights were measured and then the following seven groups each comprising eight rats was organized. • Normal control group • Onset control group • Prophylactic administration group with 0.25 mg/kg/day of a test drug • Prophylactic administration group with 0.50 mg/kg/day of a test drug • Therapeutic administration group with 0.25 mg/kg/day of a test drug • Therapeutic administration group with 0.50 mg/kg/day of a test drug • Therapeutic administration group with 30 mg/kg/day of gabapentin (positive control)
Taxol (registered trademark) injection 30 mg (manufactured by Bristol-Myers Squibb) containing 6 mg/mL of paclitaxel was used. To the rats of each of the above groups except the normal control group was intraperitoneally administered paclitaxel diluted to 2 mg/mL with saline in a dose of 2 mg/kg four times every other day whereupon the paclitaxel-induced peripheral nerve disorder rats were prepared. To the normal control group, an equivalent mixture of ethanol and Cremophor EL (registered trademark; manufactured by Sigma; a solvent for Taxisol (registered trademark) injection) diluted with saline to an extent of 3-fold was administered similarly.
To prophylactic administration groups of a test drug, the compound 4 in a dose of 0.25 mg/kg/day or 0.50 mg/kg/day was repeatedly administered intraperitoneally since immediately after initiation of administration of paclitaxel until 13 days thereafter. Meanwhile, to therapeutic administration groups of a test drug and to a therapeutic administration group of gabapentin, the compound 4 in a dose of 0.25 mg/kg/day or 0.50 mg/kg/day or gabapentin in a dose of 30 mg/kg/day, respectively was repeatedly administered intraperitoneally during the period of from 14 days to 42 days after initiation of the administration of paclitaxel.
The seven groups of rats of the above (1) were placed in a transparent acrylic cage with a wire-meshed floor and habituated for about three minutes and the 50% reaction threshold values to the mechanical stimulus of right hind limb were measured after 3, 7, 14, 21, 28, 35 and 42 days from initiation of the administration of paclitaxel. Incidentally, during the period of administration of a test drug, its values were measured after 24 hours from the last administration of a test drug.
The measurement was conducted using von Frey filaments (manufactured by North Coast Medical Inc.) in accordance with the methods of Chaplan, et al. (Journal of Neuroscience Methods, vol. 53, no. 1, pages 55 to 63, 1994) and Dixon, et al. (Annual Review of Pharmacology and Toxicology, vol. 20, pages 441 to 462, 1980). […] The case where the rat escaped at the instance of removing the filament was also called positive. When the positive reaction was noted, stimulus was conducted similarly using a filament of one rank weaker while, when no reaction was noted, stimulus was conducted similarly using a filament of one rank stronger and the point when the reaction changed from negative to positive or from positive to negative was called the first two reactions. […] A 50% reaction threshold value to the mechanical stimulus was measured using the reaction to the six stimuli in total and then (mean value) ± (standard error) for each group was calculated. […]

CCCCCCC/C=C/COC(=O)/C=C/CCCCCCC [Compound 16, Trans-2-decenoic acid trans-2-decenyl ester]
inhibition in vivo at 0.3 mg/kg [1]: 94.4%

CCCCCCC/C=C/C(=O)OC(C)(C)C [Compound 10, Trans-2-decenoic acid tert-butyl ester]
inhibition in vivo at 0.3 mg/kg [1]: 50%

CCCCCCC/C=C/C(=O)OC(C)C [Compound 6, Trans-2-decenoic acid isopropyl ester]
inhibition in vivo at 0.3 mg/kg [1]: 10.2%

C=CCCCCCCCCOC(=O)/C=C/CCCCCCC [Compound 17, Trans-2-decenoic acid trans-9-decenyl ester]
inhibition in vivo at 0.3 mg/kg [1]: 54%

CCCCCCC/C=C/C(=O)OCCC [Compound 5, Trans-2-decenoic acid propyl ester]
inhibition in vivo at 0.3 mg/kg [1]: 71.2%

CCCCCCC/C=C/C(=O)OC1CCCCC1 [Compound 18, Trans-2-decenoic acid cyclohexyl ester]
inhibition in vivo at 0.3 mg/kg [1]: 15.8%

CCCCCCC/C=C/C(=O)OC [Compound 3, Trans-2-decenoic acid methyl ester]
inhibition in vivo at 0.3 mg/kg [1]: 63.2%

C=CCCCCCCCC(=O)OCC [Compound 22, Trans-9-decenoic acid ethyl ester]
inhibition in vivo at 0.3 mg/kg [1]: 67.9%

CCCCCCC/C=C/C(=O)O [trans-2-decenoic acid, reference compound]
50% reaction threshold values to the mechanical stimulus vs onset control group [2]: no difference from the onset control group

CCCCCCC/C=C/C(=O)OCCCCCCCCCC [Compound 14, Trans-2-decenoic acid decyl ester]
inhibition in vivo at 0.3 mg/kg [1]: 32.2%

CCCCCCC/C=C/C(=O)OCCCCCC [Compound 11, Trans-2-decenoic acid hexyl ester]
inhibition in vivo at 0.3 mg/kg [1]: 60.8%

CCCCCCC/C=C/C(=O)OCCCC [Compound 7, Trans-2-decenoic acid butyl ester]
inhibition in vivo at 0.3 mg/kg [1]: 22.7%

CCCCCC/C=C/CC(=O)OCC [Compound 20, Trans-3-decenoic acid ethyl ester]
inhibition in vivo at 0.3 mg/kg [1]: 14.7%

CCCCCCC/C=C/C(=O)OCCCCCCC [Compound 12, Trans-2-decenoic acid heptyl ester]
inhibition in vivo at 0.3 mg/kg [1]: 21.3%

CCCCCCCCCC(=O)OCC [Compound 2, Decanoic acid ethyl ester]
inhibition in vivo at 0.3 mg/kg [1]: 22.9%
